One data set relates to VRE 342B. Description: Antibacterial screening, broth microdilution MIC. It is filed as cell-based, vancomycin-resistant E. faecalis. The settings on record: Enterococcus, vanA isolate, 24 h at 37 °C, read-out: MIC VRE 342B. For orientation: Dilution methods test growth across graded concentrations, often in twofold steps.
The nature of data set [1]: Lipophilicity determination by RP-HPLC (log k, log D). It is filed as physicochemical. The settings on record: for log D6.5: RP-HPLC C18, MeOH 72 % / acetate-buffered saline pH 6.5; for log D7.4: RP-HPLC C18, MeOH 72 % / acetate-buffered saline pH 7.4; for log k (logarithm of the capacity factor): RP-HPLC C18, MeOH 72 % / water 28 %. An excerpt: An HPLC system Agilent 1200 equipped with a DAD detector (Agilent, Santa Clara, CA, USA) was used. A chromatographic column Symmetry® C18 5 μm, 4.6×250 mm, part No. WAT054275 (Waters Corp., Milford, MA, USA) was used. The HPLC separation process was monitored and evaluated with EZChrom Elite software ver. 3.3.2 (Agilent). Isocratic elution by a mixture of MeOH p.a. (72 %) and H2O-HPLC Mili-Q grade (28 %) as a mobile phase was used for the determination of capacity factor k. Isocratic elution by a mixture of MeOH p.a. (72 %) and acetate-buffered saline (pH 7.4 and pH 6.5) (28 %) as a mobile phase was used for the determination of distribution coefficients expressed as D7.4 and D6.5. The total flow of the column was 1.0 mL min^-1, the injection volume was 20 μL, the column temperature was 40 °C, and the sample temperature was 10 °C. The detection wavelength of 210 nm was chosen. A KI methanolic solution was used to determine the dead times (tD). Retention times (tR) were measured in minutes. The capacity factors k were calculated according to the formula k = (tR–tD)/tD, where tR is the retention time of the solute, and tD is the dead time obtained using an unretained analyte. The distribution coefficients DpH were calculated according to the formula DpH = (tR–tD)/tD. Each experiment was repeated three times.
The capacity factor and distribution coefficients were measured by RP-HPLC on a C18 column with methanol as an organic modifier of the mobile phase. In addition to the experimental lipophilicities, predicted log P values were also calculated using ACD/Percepta, see Table 1. […] The values of σ(Ar) are found in a wide range from 0.01 to 1.36, so the compounds contain substituents with both electron-donating and slightly electron-withdrawing properties.

The subject of the next data set is MRSA SA 3202. Description: Antibacterial screening, broth microdilution MIC. It is filed as cell-based, methicillin-resistant S. aureus. The settings on record: Staphylococcus aureus, clinical isolate, 24 h at 37 °C, read-out: MIC MRSA SA 3202.
Another data set has as its system VRE 368. Description: Antibacterial screening, broth microdilution MIC. Particulars: Enterococcus, vanA isolate, 24 h at 37 °C, read-out: MIC VRE 368. It is filed as cell-based, vancomycin-resistant E. faecalis.
A further data set concerns E. coli ATCC 25922. Description: Antibacterial screening, broth microdilution MIC. It counts as cell-based. The settings on record: Escherichia coli, ATCC25922; ATCC 25922, 24 h at 37 °C.
Data set [2] deals with Mycobacterium tuberculosis ATCC 25177/H37Ra. Briefly: Antimycobacterial screening, broth dilution MIC (Alamar blue). It counts as cell-based. The settings on record: 336 h, H37Ra, 14 days at 37 °C, Alamar blue, read-out: MIC M. tuberculosis. The procedure:
The evaluation of in vitro antimycobacterial activity of the compounds was performed against Mycobacterium tuberculosis ATCC 25177/H37Ra, Mycobacterium kansasii DSM 44162 and Mycobacterium smegmatis ATCC 700084.
The broth dilution micro-method in Middlebrook 7H9 medium (Difco, Lawrence, KS, USA) supplemented with ADC Enrichment (Difco) was used to determine the minimum inhibitory concentration (MIC) as previously described. […] The final concentrations of the evaluated compounds, ranging from 256 to 0.125 μg mL^-1, were obtained by twofold serial dilution of the stock solution in a microtiter plate with a sterile medium. Bacterial inocula were prepared by transferring colonies from culture to sterile water. The plate was inoculated by tested microorganisms. The final concentration of bacterial cells was 1.5×10^6 for M. tuberculosis and 10^5 cells in a microtiter plate for other mycobacteria. Isoniazid and rifampicin (Sigma) were used as reference antimycobacterial drugs. Drug-free controls, sterility controls, and controls consisting of medium and DMSO alone were included. The plates were incubated for a defined time at an appropriate temperature (3 days at 37 °C for M. smegmatis, and 14 days at 37 °C for M. tuberculosis and M. kansasii). […] The MICs against M. tuberculosis were evaluated by Alamar blue (Oxoid). After incubation, 10 % of Alamar blue was added to each well, and the plate was incubated for 24 h. The MIC values were assessed as the lowest concentration of the tested compounds, which prevented changing blue resazurin to pink resorufin. The experiments were repeated three times. The minimum inhibitory concentrations (MICs) were defined as the lowest concentration of the compound at which no visible bacterial growth was observed. The MIC value is routinely and widely used in bacterial assays and is a standard detection limit according to the CLSI [60].

The next data set concerns MRSA 63718. Description: Antibacterial screening, broth microdilution MIC. The settings on record: Staphylococcus aureus, read-out: MIC MRSA 63718. It counts as cell-based, methicillin-resistant S. aureus.
Data set [3] has as its system Mycobacterium smegmatis ATCC 700084. Description: Antimycobacterial screening, broth dilution MIC. It is filed as cell-based. The settings on record: Mycolicibacterium smegmatis, ATCC700084, 72 h, read-out: MIC M. smegmatis.
Another data set deals with S. aureus ATCC 29213. Description: Antibacterial screening, broth microdilution MIC. It is filed as cell-based. The settings on record: Staphylococcus aureus, ATCC29213; ATCC 29213, 24 h at 37 °C; read-out: MIC S. aureus.
Data set [4] concerns Enterococcus faecalis ATCC 29212. Description: Antibacterial screening, broth microdilution MIC. It counts as cell-based. The settings on record: ATCC29212, ATCC 29212, 24 h at 37 °C, read-out: MIC E. faecalis.
Another data set concerns VRE 725B. Briefly: Antibacterial screening, broth microdilution MIC. It is filed as cell-based, vancomycin-resistant E. faecalis. Particulars: Enterococcus, vanA isolate, 24 h at 37 °C, read-out: MIC VRE 725B.
Data set [5] relates to Mycobacterium kansasii DSM 44162. Briefly: Antimycobacterial screening, broth dilution MIC. It counts as cell-based. Particulars: DSM44162, 336 h, read-out: MIC M. kansasii.
The next data set concerns MRSA SA 630. Briefly: Antibacterial screening, broth microdilution MIC. It is filed as cell-based, methicillin-resistant S. aureus. The settings on record: Staphylococcus aureus, clinical isolate, 24 h at 37 °C, read-out: MIC MRSA SA 630.
[6] abbreviates: clinical isolate, 24 h at 37 °C.

Molecules are shown by their SMILES. Converted amounts (≈) assume the structure as drawn. Read-outs that look alike come from different tables or passages of the source.

This note sets out measurements from publication PMC11954145, “Antimicrobial and ADME properties of methoxylated, methylated and nitrated 2-hydroxynaphthalene-1 carboxanilides” (ADMET & DMPK, 2025).

Regarding `COc1ccc(C)c(NC(=O)c2c(O)ccc3ccccc23)c1` [Compound 17, 2-Hydroxy-N-(5-methoxy-2-methylphenyl)naphthalene-1-carboxamide], the MIC (as a rule, the least concentration at which growth counts as inhibited) in the data set on VRE 342B was determined as 833 µM (≈ 256 µg/mL); in the data set with MRSA SA 3202, 208 µM (≈ 63.9 µg/mL); with VRE 368, 833 µM (≈ 256 µg/mL); against E. coli ATCC 25922, 833 µM (≈ 256 µg/mL); in data set [2], 416 µM (≈ 128 µg/mL); in the data set on MRSA 63718 (24 h), 416 µM (≈ 128 µg/mL). For the same molecule, the minimal inhibitory concentration (MIC) in data set [3] came out at 416 µM (≈ 128 µg/mL); in the data set on S. aureus ATCC 29213, 104 µM (≈ 32 µg/mL); in data set [4], 833 µM (≈ 256 µg/mL); in the data set with VRE 725B, 833 µM (≈ 256 µg/mL); in [5], 833 µM (≈ 256 µg/mL); in the data set with MRSA SA 630, 208 µM (≈ 63.9 µg/mL). Moreover, the “log D6.5” value in data set [1] came out at 0.1047. The “log D7.4” value in data set [1] came to 0.1113. The “log k (logarithm of the capacity factor)” value in [1] is listed as 0.0892.

`COc1ccc(Br)cc1NC(=O)c1c(O)ccc2ccccc12` [Compound 19, N-(5-Bromo-2-methoxyphenyl)-2-hydroxynaphthalene-1-carboxamide]: the MIC with VRE 342B stood at 688 µM (≈ 256 µg/mL); with MRSA SA 3202, 688 µM (≈ 256 µg/mL); with VRE 368, 688 µM (≈ 256 µg/mL); in the data set with E. coli ATCC 25922 it was 688 µM (≈ 256 µg/mL); in data set [2], 344 µM (≈ 128 µg/mL); in the data set on MRSA 63718 (setting [6]), 688 µM (≈ 256 µg/mL). The MIC was 688 µM (≈ 256 µg/mL) in [3] (ATCC 700084, 3 days at 37 °C); 688 µM (≈ 256 µg/mL) in the data set on S. aureus ATCC 29213; 688 µM (≈ 256 µg/mL) in data set [4]; 688 µM (≈ 256 µg/mL) in the data set on VRE 725B; 688 µM (≈ 256 µg/mL) in data set [5] (DSM 44162, 14 days at 37 °C); 688 µM (≈ 256 µg/mL) with MRSA SA 630. In data set [1], the “log D6.5” value is given as 0.5836. Further, in [1], the “log D7.4” value was found to be 0.5835. Moreover, in data set [1], the “log k (logarithm of the capacity factor)” value is 0.5845.

For `Cc1cc(C)c(NC(=O)c2c(O)ccc3ccccc23)c(C)c1` [Compound 14, 2-Hydroxy-N-(2,4,6-trimethylphenyl)naphthalene-1-carboxamide], the MIC was found to be 838 µM (≈ 256 µg/mL) with VRE 342B; 419 µM (≈ 128 µg/mL) with MRSA SA 3202; 838 µM (≈ 256 µg/mL) in the data set on VRE 368; 838 µM (≈ 256 µg/mL) with E. coli ATCC 25922; 210 µM (≈ 64.1 µg/mL) in data set [2]; 838 µM (≈ 256 µg/mL) in the data set with MRSA 63718 (setting [6]). The minimal inhibitory concentration (MIC) in data set [3] (ATCC 700084, 3 days at 37 °C) came out at 210 µM (≈ 64.1 µg/mL); in the data set with S. aureus ATCC 29213, 838 µM (≈ 256 µg/mL); in data set [4], 838 µM (≈ 256 µg/mL); in the data set with VRE 725B, 838 µM (≈ 256 µg/mL); in data set [5] (DSM 44162, 14 days at 37 °C) it was 838 µM (≈ 256 µg/mL); with MRSA SA 630, 838 µM (≈ 256 µg/mL). Also, the “log D6.5” value in [1] was 0.2629. The “log D7.4” value in data set [1] is recorded as 0.2691. In [1], the “log k (logarithm of the capacity factor)” value turned out to be 0.2539.
